Assay results as given in patent US20230372382A1, “USE OF ADENOSINE DIPHOSPHATE RIBOSE FOR ADJUVANT THERAPY WITH RADIATION AND/OR ANTI-CANCER TREATMENT” (PearlsInMires Co., Ltd., priority 2021, published 2023).

Assays:
[1] = tested on: OVCAR-3 cells; assay: Cancer cell death verification (MTT cell viability); type: cell-based; settings: OVCAR-3, 32 μM ADP-ribose, 24 hours
Method: 3×10^3 SNU-1 or OVCAR-3 cells were cultured in a 96-well plate for 24 hours under conditions of 37° C. and 5% CO2, treated with ADP-ribose at concentrations of 32 μM, respectively, and cultured again for 24 hours under conditions of 37° C. and 5% CO2. Then, 10 μl of 3-(4,5-dimethylthiazol-2-yl)-2,5-diphenyltetrazolium bromide reagent was added to each well and reacted for 1 hour. After the reaction was completed, the reagent was removed, 200 μl of dimethyl sulfoxide was added to each well, and the absorbance was measured to confirm cell viability.

[2] = tested on: Colon cancer (HCT116) cells; assay: Cell death by combination treatment with anti-cancer drug (MTT); type: cell-based; settings: Homo sapiens, HCT-116; HCT116, ADP-ribose 1.6 μM/100 μl in combination with 5-FU 10 μM, 24 hours, P<0.001
Method: (§2) 3×10^3 Brain cancer (U-87MG), lung cancer (H1975), pancreatic cancer (Aspc-1), liver cancer (Hep G2), breast cancer (MDA-MB-231), and colon cancer (HCT116) cells were cultured in a 96-well plate for 24 hours under conditions of 37° C. and 5% Ca2, respectively. […] After the treatment was terminated, the cells were cultured for 24 hours under conditions of 37° C. and 5% CO2 again, 10 μl of 3-(4,5-dimethylthiazol-2-yl)-2,5-diphenyltetrazolium bromide reagent was added to each well and reacted for 1 hour. After the reaction was completed, the reagent was removed, 200 μl of dimethyl sulfoxide was added to each well, and the absorbance was measured to compare the degree of cell death.
3×10^3 Colon cancer (HCT116) cells were cultured in a 96-well plate for 24 hours under conditions of 37° C. and 5% CO2, treated with ADP-ribose at a concentration of 1.6 μM/100 μl and 5-fluorouracil (5-FU) at 10 μM, individually or in combination, and cultured for 24 hours under conditions of 37° C. and 5% CO2 again. Then, 10 μl of 3-(4,5-dimethylthiazol-2-yl)-2,5-diphenyltetrazolium bromide reagent was added to each well and reacted for 1 hour. After the reaction was completed, the reagent was removed, 200 μl of dimethyl sulfoxide was added to each well, and the absorbance was measured to confirm cell viability.

[3] = tested on: AsPC-1 cells; assay: Cell death by combination treatment of ADP-ribose and radiation (MTT); type: cell-based; settings: AsPC-1, 2 μM ADP-ribose in combination with 2 Gy radiation, 24 hours, P<0.001; 2 Gy alone about 87.3%
Method: 3×10^3 Brain cancer (U-87MG), lung cancer (H1975), pancreatic cancer (Aspc-1), liver cancer (Hep G2), breast cancer (MDA-MB-231), colon cancer (HCT116), and kidney cancer (Caki-1) cells were cultured in a 96-well plate for 24 hours under conditions of 37° C. and 5% CO2, treated with ADP-ribose or 2 or 5 Gy radiation alone or in combination with ADP-ribose and 2 Gy radiation, and cultured for 24 hours under conditions of 37° C. and 5% CO2 again. Then, 10 μl of 3-(4,5-dimethylthiazol-2-yl)-2,5-diphenyltetrazolium bromide reagent was added to each well and reacted for 1 hour. After the reaction was completed, the reagent was removed, 200 μl of dimethyl sulfoxide was added to each well, and the absorbance was measured to compare the degree of cell death.
3×10^3 AsPC-1 cells were cultured in a 96-well plate for 24 hours under conditions of 37° C. and 5% CO2, treated with 2 μM of ADP-ribose and 2 or 5 Gy dose of radiation individually or in combination, and cultured for 24 hours under conditions of 37° C. and 5% CO2 again. Then, 10 μl of 3-(4,5-dimethylthiazol-2-yl)-2,5-diphenyltetrazolium bromide reagent was added to each well and reacted for 1 hour. After the reaction was completed, the reagent was removed, 200 μl of dimethyl sulfoxide was added to each well, and the absorbance was measured to confirm cell viability.

[4] = tested on: human dermal papilla cell (HDPC); assay: Toxicity in normal cells (MTT assay); type: cell-based; settings: ADP-ribose 25, 50, 100 ul, 24, 48 and 72 hours
Method: (§1) As normal cells, human colon fibroblast (CCD-18Co) and human dermal papilla cell (HDPC) cells were used. […] Then, the cells were divided into a total of 4 groups: ADP-ribose untreated group (Untreated), and treated groups (treated with increased concentrations of 25, 50, 100 ul). Cell viability was compared by MTT assay after 24, 48, and 72 hours of drug treatment.

[5] = tested on: human colon fibroblast (CCD-18Co); assay: Toxicity in normal cells (MTT assay); type: cell-based; settings: ADP-ribose 25, 50, 100 ul, 24, 48 and 72 hours
Method: as §1

[6] = tested on: MDA-MB-231 cells; assay: ADP-ribose quantitative analysis (ELISA) in cancer cells; type: cell-based; settings: 16 μM ADP-ribose, 24 hours, P<0.001
Method: After culturing, the culture medium was removed, the cells were washed with phosphate-buffered saline, and then RIPA buffer was added and the cells were left on ice for 20 minutes. After scraping the cells, the cells were put in a centrifuge tube and centrifuged for 10 minutes at 10,000 g and 4° C. The supernatant was obtained, and 1% SDS was added, and then the reaction product was boiled at 100° C. for 5 minutes and cooled on ice. The supernatant was centrifuged again at 10,000 g and 4° C. for 10 minutes to obtain the final supernatant, and ADP-ribose was quantitatively analyzed and compared using an ELISA analysis kit (Cell Biolabs, Inc., San Diego, CA, USA).
5×10^5 MDA-MB-231 cells were divided into the untreated group and 16 μM ADP-ribose-treated group and cultured in Leibovitz's L-15 medium supplemented with 10% fetal calf serum+100 units/ml penicillin+100 μg/ml streptomycin under conditions of 37° C. and 5% CO2 for 24 hours. The medium of the cultured cells was removed, and the supernatant prepared by treatment with RIPA buffer and 1% sodium dodecyl sulfate (SDS) was used for ELISA analysis to detect and analyze ADP-ribose.

[7] = tested on: Liver cancer (Hep G2) cells; assay: Xenograft model, combination with anti-cancer drug, tumor volume; type: in vivo, BALB/c nude mice
Method: Brain (U-87MG), lung (H1975), pancreatic (AsPC-1), or liver (Hep G2) cells (1×10^7 cells) were inoculated into 5-week-old BALB/c nude mice on the back flank, respectively. Then, when tumors were grown to a volume of approximately 150 mm^3, the mice were divided into the control group (control), an anti-cancer drug alone treatment group, and a combination treatment group. […] The tumor size was measured every 6 days using a digital caliper, and the results of changes in tumor volume were compared by the group.
Liver cancer (Hep G2) cells (1×10^7) were inoculated into 5-week-old BALB/c nude mice on the back flank, and the mice were divided into three groups: the control group (Control), single oral administration of 10 mg/kg of sorafenib, and combination administration of sorafenib+10 mg/kg of ADP-ribose. When the tumors were grown to a volume of approximately 150 mm^3, sorafenib was administered orally 5 times a week, and ADP-ribose at 10 mg/kg was injected subcutaneously 3 times a week. The tumor size was measured using a digital caliper, and the results of changes in tumor volume were compared by the group.

[8] = tested on: Breast cancer (MDA-MB-231) cells; assay: Cell death by combination treatment with anti-cancer drug (MTT); type: cell-based; settings: Homo sapiens, MDA-MB-231, 24 h
Method: as §2
Then, 10 μl of 3-(4,5-dimethylthiazol-2-yl)-2,5-diphenyltetrazolium bromide reagent was added to each well and reacted for 1 hour. After the reaction was completed, the reagent was removed, 200 μl of dimethyl sulfoxide was added to each well, and the absorbance was measured to confirm cell viability.

[9] = tested on: Brain cancer (U-87MG) cells; assay: Xenograft model, combination with radiation, tumor volume; type: in vivo, BALB/c nude mice; settings: U-87MG xenograft
Method: Brain cancer (U-87MG), pancreatic cancer (AsPC-1), breast cancer (MDA-MB-231), or kidney cancer (Caki-1) cells (1×10^7 cells) were inoculated into 5-week-old BALB/c nude mice on the back flank, respectively. Then, when tumors were grown to a volume of approximately 150 mm^3, the mice were divided into three groups: the control group (Control), 2 Gy dose of radiation alone, and a combination administration of 2 Gy dose of radiation+10 mg/kg of ADP-ribose (subcutaneous administration, 3 times a week). The irradiation was performed with an X-Rad 320 irradiator (Precision X-ray, North Branford, CT, USA), wherein the mice were placed by maintaining an appropriate distance from the radiation source for irradiation with a predetermined radiation dose. A lead shield was used to protect the body parts or organs from exposure to radiation, other than the cancerous part of the mouse. The irradiation was performed with a total of 2 Gy of radiation fractionated into two doses of 1 Gy each (for 2 days) at a dose rate of 300 kVp and 150 cGy/min using an X-ray beam filter composed of 12.5 mA and 2.0 mm Al. The tumor size was measured every 6 days using a digital caliper, and the results of changes in tumor volume were compared by the group.
Brain cancer (U-87MG) cells (1×10^7) were inoculated into 5-week-old BALB/c nude mice on the back flank, and the mice were divided into three groups: the control group, 2 Gy dose of radiation alone, and combination administration of 2 Gy dose radiation+10 mg/kg of ADP-ribose. When the tumors were grown to a volume of approximately 150 mm^3, 2 Gy dose of radiation was irradiated twice at 1 Gy each, and 10 mg/kg of ADP-ribose was injected subcutaneously 3 times a week. The tumor size was measured using a digital caliper, and the results of changes in tumor volume were compared by the group.

[10] = ADP-ribose 10 mg/kg s.c. in combination with sorafenib 10 mg/kg, P<0.001
[11] = ADP-ribose 10 mg/kg s.c. + 2 Gy radiation, P<0.001

Nc1ncnc2c1ncn2[C@@H]1O[C@H](COP(=O)(O)OP(=O)(O)OC[C@H]2O[C@@H](O)C(O)C2O)C(O)C1O (stereo partly shown) [ADP-ribose, adenosine diphosphate ribose]
cell death compared to the control group [1]: killed significantly | viability at 1.6 µM [2]: ~12% | survival rate of cancer cells [3]: about 8% | toxicity to normal cells (cell viability, MTT assay) [4]: no toxicity was observed | toxicity to normal cells (cell viability, MTT assay) [5]: no toxicity was observed | amount of ADP-ribose in cells compared to the control group [6]: remarkably increased significantly | reduction of tumor volume compared to the control group [7, 10]: about 76% | reduction of tumor volume compared to the group treated with sorafenib alone [7, 10]: about 70% | final tumor volume ([7]; ADP-ribose 10 mg/kg subcutaneous 3 times a week in combination with sorafenib 10 mg/kg, control about 2322.4): about 546 mm^3 | viability at 3.2 µM [8]: ~20% | reduction of tumor volume compared to the control group [9, 11]: about 71.5% | reduction of tumor volume compared to the group treated with 2 Gy dose of radiation alone [9, 11]: about 50.7% | final tumor volume ([9]; ADP-ribose 10 mg/kg subcutaneous 3 times a week + 2 Gy radiation, control about 2545.2, 2 Gy alone about 1472.1): about 725.2 mm^3
